# Laboratory results taken from ChEMBL document CHEMBL1201862, “PubChem BioAssay data set” (2004).
#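 Briefly, cells in 96-well plates were exposed to five compound concentrations for 48 h, and endpoints were estimated by linear interpolation. Abbreviation: GI50, concentration required for 50% inhibition of growth.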 Active and inactive are the calls of the source. No stated cut-off is given here; in the data, active = GI50 up to about 1.1 µM and inactive = higher.
# How the values were obtained:
# Assay in all cases: NCI anticancer screen, dose series, 48 h
# 786-0 = tested on: 786-0
# A498 = tested on: A498
# A549 = tested on: A549
# BT-549 = tested on: BT-549
# DU-145 = tested on: DU-145
# IGROV-1 = tested on: IGROV-1
# K562 = tested on: K562
# KM12 = tested on: KM12
# MDA-MB-435 = tested on: MDA-MB-435
# MDA-N = tested on: MDA-N
# MOLT-4 = tested on: MOLT-4
# NCI-H226 = tested on: NCI-H226
# NCI-H23 = tested on: NCI-H23
# OVCAR-8 = tested on: OVCAR-8
# RPMI-8226 = tested on: RPMI-8226
# SK-MEL-2 = tested on: SK-MEL-2
# SN12C = tested on: SN12C
# SNB-78 = tested on: SNB-78
# SR = tested on: SR
# UO-31 = tested on: UO-31
Compound,GI50 (786-0),GI50 (A498),GI50 (A549),GI50 (BT-549),GI50 (DU-145),GI50 (IGROV-1),GI50 (K562),GI50 (KM12),GI50 (MDA-MB-435),GI50 (MDA-N),GI50 (MOLT-4),GI50 (NCI-H226),GI50 (NCI-H23),GI50 (OVCAR-8),GI50 (RPMI-8226),GI50 (SK-MEL-2),GI50 (SN12C),GI50 (SNB-78),GI50 (SR),GI50 (UO-31)
CS(=O)(=O)Nc1ccc(Nc2c3ccccc3nc3ccccc23)cc1,3.1 µM (inactive),3.21 µM (inactive),0.325 µM (active),11 µM (inactive),0.355 µM (active),2.09 µM (inactive),2.23 µM (inactive),3.13 µM (inactive),7.87 µM (inactive),5.94 µM (inactive),0.0873 µM (active),1.04 µM (active),4.06 µM (inactive),2.77 µM (inactive),2.04 µM (inactive),5.16 µM (inactive),0.714 µM (active),7.83 µM (inactive),78.9 nM (active),2.23 µM (inactive)
C=C1CC2(OC1=O)c1ccccc1CCc1ccccc12,1.75 µM (inactive),25.8 µM (inactive),8.26 µM (inactive),1.58 µM (inactive),18.7 µM (inactive),7.23 µM (inactive),1.71 µM (inactive),3.61 µM (inactive),2.48 µM (inactive),1.8 µM (inactive),2.43 µM (inactive),13.2 µM (inactive),9.95 µM (inactive),4.48 µM (inactive),2.07 µM (inactive),5.62 µM (inactive),2.52 µM (inactive),2.18 µM (inactive),497 nM (active),9.82 µM (inactive)
CCCCCCCC(CC(=O)NC(CO)C(=O)NC(CO)CC(C)C)OC(=O)CC(CCCCCCC)OC(=O)CC(CCCCCCC)OC1OC(C)C(O)C(OC2OC(C)C(O)C(O)C2O)C1O (stereo not given),14.3 µM (inactive),18.7 µM (inactive),15.8 µM (inactive),14.5 µM (inactive),12.6 µM (inactive),12.6 µM (inactive),5.12 µM (inactive),11.7 µM (inactive),6.52 µM (inactive),6.92 µM (inactive),3.06 µM (inactive),16.6 µM (inactive),14.3 µM (inactive),16.3 µM (inactive),2.37 µM (inactive),3.76 µM (inactive),14.5 µM (inactive),20.2 µM (inactive),3050 nM (inactive),16.6 µM (inactive)
